Measurements published in patent US20240308987A1, “SMALL MOLECULE INHIBITOR AGAINST NASOPHARYNGEAL CARCINOMA, PREPARATION METHOD AND APPLICATION THEREOF” (SHENZHEN BAY LABORATORY, priority 2021, published 2024).
pEC50: −log10 of the molar value.

System: C666-1 cells
Assay: C666-1 Cell Viability Assay (Resazurin cytotoxicity test)
Type: cell-based
Conditions: Homo sapiens, C6661, EB virus-positive C666-1 cells, 72 hours treatment, 100-0.78 micromole/L, read-out: Inhibitory Rate
Method in brief: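 EBV-positive nasopharyngeal carcinoma C666-1 cells, 5×10^3 per well, were grown 24 h, then exposed to compound for 72 h at 37 °C (8-point two-fold dilutions, final 100–0.78 µM). Viability was read by resazurin reduction fluorescence after 3 h; EC50 came from the fitted inhibition curve.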

Row | Structure (SMILES) | pEC50
1 | O=C(Cc1cccnc1)Nc1ccc(OC2CN(c3cccc(C(=O)O)c3-c3cccc(Cl)c3)C2)cc1 [Example 48a, 3′-chloro-6-(3-(4-(2-(pyridin-3-yl)acetamido)phenoxy)azetidin-1-yl)-[1,1′-biphenyl]-2-carboxylic acid] | 4.30 to 5.00
2 | COC(=O)c1cccc(N2CC(Oc3ccc(NC(=O)Cc4cccnc4)cc3)C2)c1 [Example 49, methyl 3-(3-(4-(2-(pyridin-3-yl)acetamido)phenoxy)azetidin-1-yl) benzoate] | 5.00 to 6.00
3 | O=C(Cc1cccnc1)Nc1ccc(OC2CN(c3cccc(C(=O)O)c3)C2)cc1 [Example 49a, 3-(3-(4-(2-(pyridin-3-yl)acetamido)phenoxy)azetidin-1-yl) benzoic acid] | 4.30 to 5.00
4 | COC(=O)c1cccc(N2CC(Oc3ccc(NC(=O)Nc4cccnc4)cc3)C2)c1 [Example 50, methyl 3-(3-(4-(3-(pyridin-3-yl)ureido)phenoxy)azetidin-1-yl) benzoate] | 5.00 to 6.00
5 | O=C(Nc1ccc(OC2CN(c3cccc(C(=O)O)c3)C2)cc1)Nc1cccnc1 [Example 50a, 3-(3-(4-(3-(pyridin-3-yl)ureido)phenoxy)azetidin-1-yl) benzoic acid] | 5.00 to 6.00
6 | COC(=O)c1cccc(N2CC(Oc3ccc(NC(=O)Cc4cccnc4)cc3)C2)c1-n1cccc1 [Example 51, methyl 3-(3-(4-(2-(pyridin-3-yl)acetamido)phenoxy)azetidin-1-yl)-2-(1H-pyrrol-1-yl) benzoate] | > 6.00
7 | O=C(Cc1cccnc1)Nc1ccc(OC2CN(c3cccc(C(=O)O)c3-n3cccc3)C2)cc1 [Example 51a, 3-(3-(4-(2-(pyridin-3-yl)acetamido)phenoxy)azetidin-1-yl)-2-(1H-pyrrol-1-yl) benzoic acid] | > 6.00
8 | COC(=O)c1cccc(N2CC(Oc3ccc(NC(=O)Cc4cccnc4)c(F)c3)C2)c1-n1cccc1 [Example 52, methyl 3-(3-(3-fluoro-4-(2-(pyridin-3-yl)acetamido)phenoxy)azetidin-1-yl)-2-(1H-pyrrol-1-yl) benzoate] | > 6.00
9 | O=C(Cc1cccnc1)Nc1ccc(OC2CN(c3cccc(C(=O)O)c3-n3cccc3)C2)cc1F [Example 52a, 3-(3-(3-fluoro-4-(2-(pyridin-3-yl)acetamido)phenoxy)azetidin-1-yl)-2-(1H-pyrrol-1-yl) benzoic acid] | > 6.00
10 | COC(=O)c1cccc(N2CC(Oc3ccc(NC(=O)Cc4cccnc4)cc3)C2)c1C [Example 53, methyl 2-methyl-3-(3-(4-(2-(pyridin-3-yl)acetamido)phenoxy)azetidin-1-yl) benzoate] | 4.30 to 5.00
11 | Cc1c(C(=O)O)cccc1N1CC(Oc2ccc(NC(=O)Cc3cccnc3)cc2)C1 [Example 53a, 2-methyl-3-(3-(4-(2-(pyridin-3-yl)acetamido)phenoxy)azetidin-1-yl) benzoic acid] | 4.30 to 5.00
12 | COC(=O)c1cccc(N2CC(Oc3ccc(NC(=O)Cc4cccnc4)c(F)c3)C2)c1-c1ccccc1 [Example 54, methyl 6-(3-(3-fluoro-4-(2-(pyridin-3-yl)acetamido)phenoxy)azetidin-1-yl)-[1,1′-biphenyl]-2-carboxylate] | 5.00 to 6.00
13 | O=C(Cc1cccnc1)Nc1ccc(OC2CN(c3cccc(C(=O)O)c3-c3ccccc3)C2)cc1F [Example 54a, 6-(3-(3-fluoro-4-(2-(pyridin-3-yl)acetamido)phenoxy)azetidin-1-yl)-[1,1′-biphenyl]-2-carboxylic acid] | 5.00 to 6.00
14 | COC(=O)c1cccc(N2CC(Oc3ccc(NC(=O)Cc4cccnc4)cc3)C2)c1Cl [Example 55, methyl 2-chloro-3-(3-(4-(2-(pyridin-3-yl)acetamido)phenoxy)azetidin-1-yl) benzoate] | 5.00 to 6.00
15 | O=C(Cc1cccnc1)Nc1ccc(OC2CN(c3cccc(C(=O)O)c3Cl)C2)cc1 [Example 55a, 2-chloro-3-(3-(4-(2-(pyridin-3-yl)acetamido)phenoxy)azetidin-1-yl) benzoic acid] | 4.30 to 5.00
16 | COC(=O)c1cccc(N2CC(Oc3ccc(Cn4ccnc4)cc3)C2)c1-n1cccc1 [Example 56, methyl 3-(3-(4-((1H-imidazol-1-yl)methyl)phenoxy)azetidin-1-yl)-2-(1H-pyrrol-1-yl) benzoate] | 4.30 to 5.00

Row | Structure (SMILES) | pEC50
17 | O=C(O)c1cccc(N2CC(Oc3ccc(Cn4ccnc4)cc3)C2)c1-n1cccc1 [Example 56a, 3-(3-(4-((1H-imidazol-1-yl)methyl)phenoxy)azetidin-1-yl)-2-(1H-pyrrol-1-yl) benzoic acid] | 4.30 to 5.00
18 | COC(=O)c1cccc(C#Cc2ccc(NC(=O)Nc3cccnc3)cc2)c1-c1cccc(OCCO)c1 [Example 57, methyl 3′-(2-hydroxyethoxy)-6-((4-(3-(pyridin-3-yl)ureido)phenyl)ethynyl)-[1,1′-biphenyl]-2-carboxylate] | 5.00 to 6.00
19 | COC(=O)c1cccc(C#Cc2ccc(NC(=O)Nc3cccnc3)cc2)c1-c1ccccc1 [Example 58, methyl 6-((4-(3-(pyridin-3-yl)ureido)phenyl)ethynyl)-[1,1′-biphenyl]-2-carboxylate] | > 6.00
20 | O=C(Nc1ccc(C#Cc2cccc(C(=O)O)c2-c2ccccc2)cc1)Nc1cccnc1 [Example 58a, 6-((4-(3-(pyridin-3-yl)ureido)phenyl)ethynyl)-[1,1′-biphenyl]-2-carboxylic acid] | 5.00 to 6.00
21 | O=C(Nc1ccc(C#Cc2cccc(C(=O)NO)c2-c2ccccc2)cc1)Nc1cccnc1 [Example 58b, N-hydroxy-6-((4-(3-(pyridin-3-yl)ureido)phenyl)ethynyl)-[1,1′-biphenyl]-2-carboxamide] | > 6.00
22 | COC(=O)c1cccc(C#Cc2ccc(NC(=O)Nc3cccnc3)cc2)c1-c1ccc2cc[nH]c2c1 [Example 59, methyl 2-(1H-indol-6-yl)-3-((4-(3-(pyridin-3-yl)ureido)phenyl)ethynyl) benzoate] | > 6.00
23 | O=C(Nc1ccc(C#Cc2cccc(C(=O)O)c2-c2ccc3cc[nH]c3c2)cc1)Nc1cccnc1 [Example 59a, 2-(1H-indol-6-yl)-3-((4-(3-(pyridin-3-yl)ureido)phenyl)ethynyl) benzoic acid] | > 6.00
24 | COC(=O)c1cccc(C#Cc2ccc(CC(=O)Nc3cccnc3)cc2)c1-c1ccccc1 [Example 60, methyl 6-((4-(2-oxo-2-(pyridin-3-ylamino)ethyl)phenyl)ethynyl)-[1,1′-biphenyl]-2-carboxylate] | > 6.00
25 | O=C(Cc1ccc(C#Cc2cccc(C(=O)O)c2-c2ccccc2)cc1)Nc1cccnc1 [Example 60a, 6-((4-(2-oxo-2-(pyridin-3-ylamino)ethyl)phenyl)ethynyl)-[1,1′-biphenyl]-2-carboxylic acid] | > 6.00
26 | O=C(Cc1ccc(C#Cc2cccc(C(=O)NO)c2-c2ccccc2)cc1)Nc1cccnc1 [Example 60b, N-hydroxy-6-((4-(2-oxo-2-(pyridin-3-ylamino)ethyl)phenyl)ethynyl)-[1,1′-biphenyl]-2-carboxamide] | > 6.00
27 | COC(=O)c1cccc(C#Cc2ccc(CC(=O)Nc3cccnc3)cc2)c1-c1ccc2cc[nH]c2c1 [Example 61, methyl 2-(1H-indol-6-yl)-3-((4-(2-oxo-2-(pyridin-3-ylamino)ethyl)phenyl)ethynyl) benzoate] | > 6.00
28 | O=C(Cc1ccc(C#Cc2cccc(C(=O)O)c2-c2ccc3cc[nH]c3c2)cc1)Nc1cccnc1 [Example 61a, 2-(1H-indol-6-yl)-3-((4-(2-oxo-2-(pyridin-3-ylamino)ethyl)phenyl)ethynyl) benzoic acid] | > 6.00
29 | COC(=O)c1cccc(C#Cc2ccc(NC(=O)Cc3cccnc3)cc2)c1-c1ccccc1 [Example 62, methyl 6-((4-(2-(pyridin-3-yl)acetamido)phenyl)ethynyl)-[1,1′-biphenyl]-2-carboxylate] | > 6.00
30 | O=C(Cc1cccnc1)Nc1ccc(C#Cc2cccc(C(=O)O)c2-c2ccccc2)cc1 [Example 62a, 6-((4-(2-(pyridin-3-yl)acetamido)phenyl)ethynyl)-[1,1′-biphenyl]-2-carboxylic acid] | > 6.00
31 | COC(=O)c1cccc(C#Cc2ccc(NC(=O)Nc3cccnc3)cc2)c1-c1cccc(O)c1 [Example 63, methyl 3′-hydroxyl-6-((4-(3-(pyridin-3-yl)ureido)phenyl)ethynyl)-[1,1′-biphenyl]-2-carboxylate] | > 6.00
